Key:
[1] = test system: naive CD4 T cells; test: Th-17 differentiation of purified naive CD4 T cells (anti-CD3/CD28) with cytokines or mouse sera, FACS; format: cell-based, mice; conditions: for Th-17 differentiation, cytokine alone: cells treated with the cytokine alone; for Th-17 differentiation driven by serum of mice treated with the substance alone: naive CD4 T cells from wild-type mice, plate-bound anti-CD3 and CD28; for Effect of co-treatment on Th-17 differentiation driven by serum of LPS-treated mice: serum of mice co-treated with LPS and the substance
Description: To test whether the CVF-augmented inflammatory cytokine production promotes Th-17 differentiation, purified naive CD4 T cells from wild-type mice were stimulated in vitro with plate-bound anti-CD3 and CD28 in the presence of specific cytokines or sera of control (naive mouse) or LPS-, CVF-treated mice. […] The augmenting effect of CVF on LPS-dependent Th-17 differentiation required C3 and C5aR but not C3aR.
The ability of C5a-induced augmentation of serum inflammatory cytokine production to promote Th-17 differentiation was assessed. Purified naive CD4 T cells from wild-type mice were stimulated in vitro with plate-bound anti-CD3 and CD28 in the presence of specific cytokines or sera of control (naive mouse) or LPS-, C5a-treated mice. […] Treatment of the cells with IL-6 alone or TGF-β alone had no effect on Th-17 differentiation. […] Thus the augmenting effect of C5a on LPS-dependent Th-17 differentiation required C5aR. These findings indicate that complement activation products, particularly C5a, synergize with the TLR activation pathway to augment inflammatory cytokine production. The complement system, through interaction with TLR, augments Th-17 differentiation and therefore plays a role in autoimmune tissue injury. FIGS. 8-11 provide evidence for this conclusion. Thus, inhibiting complement activation is a therapeutic approach for treating Th-17 T cell mediated autoimmune diseases such as multiple sclerosis, Lupus, inflammatory bowel disease, GvHD and transplant rejection.

[2] = target: T1, C5a receptor (C5aR) (Mus musculus, UniProt P30993); test: LPS-induced plasma IL-6 in DAF−/− mice treated with C5a receptor antagonist; format: in vivo; conditions: 50 μg/mouse i.p. 30 minutes before LPS
T1 construct: from tissue; host or cells: living mice (A4: C57BL/6 DAF-/-; A12: wild-type, with C5aR-/- mice as control)
T1 sequence (P30993 1-351): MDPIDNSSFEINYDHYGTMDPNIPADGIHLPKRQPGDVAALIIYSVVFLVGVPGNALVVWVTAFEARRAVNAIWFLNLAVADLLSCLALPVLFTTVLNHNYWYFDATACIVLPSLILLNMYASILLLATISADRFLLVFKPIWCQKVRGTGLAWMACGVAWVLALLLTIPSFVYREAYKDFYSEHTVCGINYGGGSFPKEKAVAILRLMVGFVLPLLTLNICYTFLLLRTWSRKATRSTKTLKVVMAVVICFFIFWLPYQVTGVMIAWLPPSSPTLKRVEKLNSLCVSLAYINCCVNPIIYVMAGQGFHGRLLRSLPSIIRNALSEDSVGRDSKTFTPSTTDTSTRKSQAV
Description: (§1) Mice were injected with the following TLR ligands: LPS (20 mg/kg in PBS, i.p.), zymosan (1 g/kg in 0.9% saline, i.p.), CpG (20 mg/kg in PBS, i.p.). In some experiments, mice were also treated with CVF (15 U/mouse in saline, i.p.), SB290157 (30 mg/kg in 20% polyethylene glycol 400 in saline, i.p.), AcPhe (50 μg/mouse in PBS, i.p.). EDTA (20 mM) anti-coagulated blood samples were collected from the tail vein or vena cava. Plasma was prepared by centrifugation at 1000×g for 15 min at 4° C. and stored as small aliquots at −80° C.

[3] = Measurement of plasma LPS levels (Pyrochrome Kit) after LPS injection; format: in vivo, mice; conditions: 3 hours after LPS injection (20 mg/kg i.p.), n=12
Description: as §1
Plasma LPS levels were determined using the Pyrochrome Kit from Associates of CAPE COD Incorporated (East Falmouth, Mass.). Plasma samples were treated at 70° C. for 10 minutes before assays to heat-inactivate serine proteases. Levels were expressed as units/ml of endotoxin.

[4] = test system: C3 activation fragments (C3b/iC3b/C3c); test: Complement activation assay (sandwich ELISA of plasma C3 activation fragments); format: in vivo; conditions: plasma samples of CpG-treated mice
Description: Levels of C3 activation fragments (C3b/iC3b/C3c) in plasma were measured by a sandwich ELISA. For quantification purposes, 1/500 serial dilutions of CVF-activated WT mouse plasma (prepared by adding 2.5 μg (1.2 units) of CVF to 50 μl plasma and incubating for 1 h at 37° C.) were used as a reference, and complement activation in all testing samples was normalized to this reference sample.

[5] = test system: LPS-induced cytokine production; test: Serum cytokine concentrations in mice treated with TLR and/or complement activators; format: in vivo; conditions: mice co-treated with LPS and CVF
Description: A set of experiment was conducted to measure serum concentrations of cytokines in mice untreated (NT) or treated with TLR and/or complement activators. […] On the other hand, CVF reduced LPS-induced IL-12 production (FIG. 8). Thus, the effect of CVF on LPS-induced cytokine production is dependent on complement C3 and C5aR but not C3aR signaling.

[6] = target: T2, C5aR (Mus musculus, UniProt P30993); test: Synergistic effect of C5a with LPS on serum IL-6 in mice; format: in vivo
T2 construct: from tissue; host or cells: living mice (A4: C57BL/6 DAF-/-; A12: wild-type, with C5aR-/- mice as control)
T2 sequence (P30993 1-351): T1 sequence (P30993 1-351)
Description: (§2) Next, the Synergistic effect of C5a with LPS in augmenting IL-6 production was tested. Instead of using the complement activator CVF, the complement activation product C5a was directly tested for its activity to synergize with LPS in IL-6 production. […] CVF treatment by itself has no effect on IL-6 production. Thus, the synergistic activity of C5a required C5aR as such an effect was not observed in C5aR^−/− mice (FIG. 10).

[7] = test system: TLR4 signaling; test: Plasma cytokine ELISA in mice after LPS, CVF or LPS/CVF treatment; format: in vivo; conditions: 3 hours; for Reduction of LPS-induced IL-12p40 by CVF treatment: LPS/CVF vs LPS
Description: as §1

[8] = test system: TLR9; test: Plasma cytokine ELISA in mice after CpG, CVF or CpG/CVF treatment; format: in vivo; conditions: wild-type mice, CVF co-treatment with CpG
Description: as §1

[9] = test system: TLR2/6 signaling; test: Plasma cytokine ELISA in mice after zymosan or zymosan/CVF treatment; format: in vivo; conditions: wild-type mice co-treated with zymosan and CVF, 3 hours
Description: as §1

[10] = target: T3, C3a receptor (C3aR) (Mus musculus, UniProt O09047); test: LPS-induced plasma IL-6 in DAF−/− mice treated with C3a receptor antagonist; format: in vivo; conditions: 30 mg/kg i.p. 30 minutes before LPS
T3 construct: Effect of a C3a receptor antagonist (C3aRa) and a C5a receptor antagonist (C5aRa) on LPS-induced plasma IL-6 levels in DAF^−/− mice; from tissue; host or cells: living C57BL/6 DAF-/- mice (whole animal)
T3 sequence (O09047 1-477): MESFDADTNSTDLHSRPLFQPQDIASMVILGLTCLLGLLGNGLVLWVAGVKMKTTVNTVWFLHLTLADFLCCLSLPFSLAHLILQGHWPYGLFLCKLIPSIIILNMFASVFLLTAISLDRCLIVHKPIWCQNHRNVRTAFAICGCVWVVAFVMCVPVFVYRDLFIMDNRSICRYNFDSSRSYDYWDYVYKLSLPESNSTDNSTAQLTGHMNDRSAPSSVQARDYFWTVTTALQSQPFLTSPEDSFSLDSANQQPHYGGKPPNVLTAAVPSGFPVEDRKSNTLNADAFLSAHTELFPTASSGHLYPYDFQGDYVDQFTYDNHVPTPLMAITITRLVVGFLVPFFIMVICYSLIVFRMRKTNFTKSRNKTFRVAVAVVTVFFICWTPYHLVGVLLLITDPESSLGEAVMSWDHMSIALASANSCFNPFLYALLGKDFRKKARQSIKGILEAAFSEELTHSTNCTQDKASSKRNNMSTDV
Description: as §1

[11] = test system: C5aR; test: Synergistic effect of C5a with LPS on serum IL-6 in mice; format: in vivo; conditions: C5aR−/− mice
Description: as §2

[12] = test system: NF-kB luciferase reporter gene in RAW264.7 cells; test: NF-kB luciferase reporter gene assay and TNF-α ELISA in transfected RAW 264.7 cells; format: cell-based, murine; conditions: transfected RAW264.7 cells
Description: RAW 264.7 cells were co-transfected with NF-kB Luc (Clontech, Palo Alto, Calif.), human C5aR in pcDNA3 (UMA cDNA resource center, Rolla, Mo.) and the Rellina control vector (Promega, Madison, Wis.) using the Amaxa Nucleofector apparatus (Amaxa Biosystems, Germany). The RAW 264.7 cells expressed detectible levels of endogenous C5aR as assessed by FACS and RT-PCR. After transfection, they also became weakly positive for human C5aR as assessed by FACS. […] Cell culture supernatants were collected for IL-6 and TNF-α assays by ELISA. All assays were performed in triplicates.

[13] = wild-type mice, CVF co-treatment with LPS
[14] = wild-type mice, CVF treatment alone

TGF-β
Th-17 differentiation, cytokine alone [1]: no effect

AcPhe
Effect on the increase in LPS-induced IL-6 production [2]: totally blocked

lipopolysaccharide [LPS]
Th-17 differentiation driven by serum of mice treated with the substance alone [1]: active in driving Th-17 differentiation
Plasma LPS concentration ([3]; DAF−/− mice): 1200±307 EU/ml
Plasma LPS concentration ([3]; wild-type mice): 925±413 EU/ml

CpG 1826 (5′-TCCATGACGTFCCTGACGTT-3′)
Complement activation in plasma [4]: detectable complement activation

Cobra venom factor [CVF]
Effect on LPS-induced IL-12 production [5]: reduced
Effect on LPS-induced serum IL-1β [5]: augmented
Effect on LPS-induced serum IL-6 [5]: augmented
Effect on LPS-induced serum TNF-α [5]: augmented
Serum IL-6 level ([6]; mice co-treated with LPS, compared with LPS alone): greatly elevated
Effect on IL-6 production ([6]; treatment by itself, without LPS): no effect
Th-17 differentiation driven by serum of mice treated with the substance alone [1]: unable to drive Th-17 differentiation
Effect of co-treatment on Th-17 differentiation driven by serum of LPS-treated mice [1]: strongly augmented
Reduction of LPS-induced IL-12p40 by CVF treatment ([7]; IL-10−/− mice): 22%
Plasma IL-10 level ([7]; LPS/CVF-treated wild-type mice compared with LPS- or CVF-treated wild-type mice): strikingly elevated
Effect on LPS-induced plasma IL-6 [7, 13]: greatly increased
Effect on LPS-induced plasma IL-12p40 [7, 13]: decreased
Effect on IL-6 production [7, 14]: negligible effect
Effect on IL-12p40 production [7, 14]: negligible effect
Reduction of LPS-induced IL-12p40 by CVF treatment ([7]; wild-type mice): 87%
Effect on CpG-induced IL-1β production [8]: no significant impact
Effect on CpG-induced TNF-α production [8]: no significant impact
Effect on CpG-induced IL-6 production ([8]; 3 hours): no significant impact
Effect on CpG-induced IL-12p40 production ([8]; 3 hours): markedly suppressed
Effect on zymosan-induced IL-6 production [9]: Markedly increased
Effect on zymosan-induced IL-12p40 production [9]: decreased

NC(N)=NCCC[C@H](NC(=O)COCC(c1ccccc1)c1ccccc1)C(=O)O [SB 290157]
Effect on the increase in LPS-induced IL-6 production [10]: significantly (p<0.001) attenuated

B1: IL-6: cytokine added to naive CD4 T cell cultures to drive Th-17 differentiation (protein, UniProt P08505 25-211, looked up)
Interleukin-6: FPTSQVRRGDFTEDTTPNRPVYTTSQVGGLITHVLWEIVEMRKELCNGNSDCMNNDDALAENNLKLPEIQRNDGCYQTGYNQEICLLKISSGLLEYHSYLEYMKNNLKDNKKDKARVLQRDTETLIHIFNQEVKDLHKIVLPTPISNALLTDKLESQKEWLRTKTIQFILKSLEEFLKVTLRSTRQT
Th-17 differentiation in the presence of TGF-β ([1]; IL-6 in the presence of TGF-β): differentiated into Th-17 cells
Th-17 differentiation, cytokine alone [1]: no effect

B2: C5a: recombinant human C5a from Sigma-Aldrich; complement activation product, anaphylatoxin (protein, UniProt P01031 678-751, looked up)
C5a anaphylatoxin: TLQKKIEEIAAKYKHSVVKKCCYDGACVNNDETCEQRAARISLGPRCIKAFTECCVVASQLRANISHKDMQLGR
modifications: C5a anaphylatoxin
Synergistic effect with LPS on IL-6 production [11]: not observed
Th-17 differentiation driven by serum of mice treated with the substance alone [1]: unable to drive Th-17 differentiation
Effect of co-treatment on Th-17 differentiation driven by serum of LPS-treated mice [1]: strongly augmented
Secretion of endogenous TNF-α ([12]; C5a (50 nM) with LPS (1000 ng/ml) per FIG. 4D legend): synergized with LPS
Secretion of endogenous TNF-α ([12]; C5a alone): negligible effect on its own

Reference: patent publication US20100119530A1, “Regulation of TLR Signaling by Complement” (priority 2007, published 2010)
